Assays:
Homo sapiens = organism: Homo sapiens; assay: Half-life period obtained from linear regression of metabolite concentration in Human plasma containing 100 mM phosphate, at pH 7.4; assay type: ADME
[1] = Half-life period obtained from linear regression of metabolite concentration in aqueous buffer of pH 7.4 at 37 degrees Celsius in 100 mM phosphate buffer.; assay type: ADME
L1210 = assay: The cytotoxicity (LC99) was evaluated in vitro against L1210 cells obtained from cultured mice.; assay type: functional, Mus musculus
[2] = Half-life period obtained from linear regression of metabolite concentration in aqueous buffer of pH 7.4 at 37 degrees Celsius in 200 mM phosphate buffer.; assay type: ADME

## O=CCCOP(=O)(NCCCl)NCCCl.O=P1(NCCCl)OCCC(O)N1CCCl
Homo sapiens
  T1/2: 10 min
[1]
  T1/2: 50 min
L1210
  LC99: 12.6 µM

## O=P(O)(NCCCl)NCCCl [PALIFOSFAMIDE]
[2]
  T1/2: 61 min
L1210
  LC99: 70 µM

From ChEMBL document CHEMBL1124519 (J Med Chem, 1989)
